Experimental data reported in PubChem BioAssay AID540269 (Sanford-Burnham Center for Chemical Genomics, 2011).
The source made the active and inactive calls. No rule for the calls is given here.

Biological target: glucose-6-phosphate dehydrogenase-6-phosphogluconolactonase (Plasmodium falciparum 3D7)
Test: PfG6PD enzyme inhibitors, kinetic NADPH readout, dose response, orthogonal assay, biochemical, kinetic NADPH detection (AID 540269)
Conditions: purified PfG6PD-6PGL

Structure (SMILES) | IC50
Cc1cc(C)c2c(=O)n(CC(=O)NC3CCCC3)sc2n1 | > 80 µM (inactive)
Cc1ccc(-c2nn(C)c(=O)c3ccccc23)cc1CNC(=O)/C=C/c1ccccc1 | 68.6 µM
CCN(CC)c1ccc(NC(=O)c2cccc(C)c2)cc1S(=O)(=O)Nc1ccccc1OC | 31.3 µM
COc1ccc(NC2CCCN(Cc3cccc4cnccc34)C2)cc1OC (stereo not given) | > 80 µM (inactive)
CCN(CC)CCn1c2ccccc2c(=O)c2c(O)ccc(O)c21 | 33.1 µM
Cc1cc(C)c2c(=N)c3ccccc3n(CCCCCCCCn3c4ccccc4c(=N)c4c(C)cc(C)nc43)c2n1 | 50.3 µM
Cc1no[n+]([O-])c1COc1cccc(/C=N/Nc2nncn2N)c1 | 30.5 µM
ClC(Cl)(c1nnnn1-c1ccccc1)c1nnnn1-c1ccccc1 | 61.2 µM
Cc1cccc(OCC(=O)NCC(=O)N/N=C/c2ccccc2)c1 | > 80 µM (inactive)
Nn1c(CSc2nc3ccccc3o2)nnc1CSc1nc2ccccc2o1 | > 80 µM (inactive)
COCCNC(=S)Nc1ccc(N2CCOCC2)c(S(=O)(=O)Nc2ccc(Cl)cc2)c1 | > 80 µM (inactive)
CCC(=O)OCCNc1cc(Sc2nc3ccccc3s2)c2nonc2c1[N+](=O)[O-] | > 80 µM (inactive)
COc1cc(C(=O)O/N=C2/C=C(C)C(=O)C=C2C)cc(OC)c1OC | > 80 µM (inactive)
COc1ccc(C2(CNC(=O)c3ccc(OC)c([N+](=O)[O-])c3)CCCCC2)cc1OC | > 80 µM (inactive)
O=S(=O)(Nc1ccc(Cl)cc1)c1ccc(N2CCOCC2)c(NC(=S)NCCN2CCOCC2)c1 | > 80 µM (inactive)
N#Cc1ccc2c(=O)n(-c3ccccc3)sc2c1 | 39.6 µM
Cc1cccc(C(=O)Nc2sc3c(c2C(=O)O)CCCC3)c1 | 32.9 µM
COc1ccc(CCn2c(NN=C3CCCCC3)nc3c2c(=O)[nH]c(=O)n3C)cc1 | > 80 µM (inactive)
O=C(OCC(=O)c1ccc([N+](=O)[O-])cc1)/C(=C\c1ccc(Cl)cc1)NC(=O)c1ccccc1 | > 80 µM (inactive)
O=[N+]([O-])c1c(NCCO)cc(Sc2nc3ccccc3s2)c2nonc12 | > 80 µM (inactive)

Structure (SMILES) | IC50
COc1cccc(C(=O)Nc2nnc(C(C)C)s2)c1 | 21.4 µM
Clc1cccc(Cl)c1CNc1ccc(N2CCCC2)cc1 | 60 µM
COc1cc(N=c2ssnc2Cl)cc(OC)c1 | > 80 µM (inactive)
CCCn1cc(S(=O)(=O)CC(=O)Nc2ccc(OC)cc2OC)c2ccccc21 | > 80 µM (inactive)
O=c1[nH]c(NCCO)c(N=Cc2ccccc2)c(=O)[nH]1 | > 80 µM (inactive)
Cc1nc2ccc(Nc3nc4cc(S(=O)(=O)N5CCOCC5)ccc4o3)cc2s1 | > 80 µM (inactive)
O=C(Cn1sc2ccccc2c1=O)Nc1ccc(F)cc1 | 13.8 µM
CC1CN(c2ccccc2)NC1=O (stereo not given) | > 80 µM (inactive)
OCCN1CCN(C(=S)c2ccc(Cl)c(Cl)c2)CC1 | > 80 µM (inactive)
CCn1c2ccccc2c2nc3cc(S(=O)(=O)N4CCOCC4)ccc3nc21 | > 80 µM (inactive)
[O-][N+](=Cc1ccccc1)c1ccc(Cl)cc1 | > 80 µM (inactive)
COC1=C(N)C(=O)c2nc(C)ccc2C1=O | > 80 µM (inactive)
CC(SCC(=O)Nc1ccccc1)c1nc2ccccc2c(=O)[nH]1 (stereo not given) | > 80 µM (inactive)
CCOc1ccc(N(CC(=O)N/N=C/c2cc([N+](=O)[O-])ccc2Cl)S(C)(=O)=O)cc1 | > 80 µM (inactive)
CN(CCO)c1cc(Sc2nc3ccccc3s2)c2nonc2c1[N+](=O)[O-] | > 80 µM (inactive)
COc1c(O)ccc2c1CN1CCc3cc4c(cc3C1C2)OCO4 (stereo not given) | > 80 µM (inactive)
CCOc1ccc(CNc2ccc(N3CCCC3)cc2)cc1 | > 80 µM (inactive)
OCCN1CCN(C(=S)c2ccc(-c3ccccc3)cc2)CC1 | > 80 µM (inactive)
O=[N+]([O-])c1ccc(N/N=C/c2ccc(O)c(O)c2O)c(S(=O)(=O)N2CCOCC2)c1 | 75.5 µM
CCNc1cc2c(cc1O)CCC1C2CCC2(C)C(O)CCC12 (stereo not given) | 35.7 µM
